Experimental data as given in ChEMBL document CHEMBL1157868, “Synthesis and antiviral activity of an imidazo[1,2-a]pyrrolo[2,3-c]pyridine series against the bovine viral diarrhea virus” (Eur J Med Chem, 2010).

What was measured:
[1] = test system: Bovine viral diarrhea virus 1; assay: Antiviral activity against Bovine viral diarrhea virus infected in MDBK cells assessed as protection against virus-induced cytopathogenicity after 5 days; format: functional, organism-based; details: Bovine viral diarrhea virus isolates and strains, 120 h
[2] = Cytotoxicity against MDBK cells; format: cell-based, Bos taurus; details: cattle
[3] = Selectivity index, CC50 for MDBK cells to EC50 for Bovine viral diarrhea virus; format: toxicity, cell-based; details: cattle, read-out: Ratio CC50/EC50

| SMILES | EC50 [1] [µM] | CC50 [2] [µM] | selectivity ratio [3] |
| --- | --- | --- | --- |
| CCOC(=O)c1cc2c(ccn3c([N+](=O)[O-])c(C)nc23)[nH]1 | 64.8 | > 100 | > 1.5 |
| CCOC(=O)c1cc2c(ccn3cc(Br)nc23)[nH]1 | 13.1 | > 100 | > 7.6 |
| CCOC(=O)c1cc2c(ccn3cc(C(OCC)OCC)nc23)[nH]1 | 2.1 | 99.2 | 46.6 |
| CCOC(=O)c1cc2c(ccn3cc(C)nc23)[nH]1 | 2.1 | > 100 | > 47.6 |
| CCOC(=O)c1cc2c(ccn3cc(-c4ccccc4)nc23)[nH]1 | 3.7 | > 100 | > 27.1 |
| CCOC(=O)c1cc2c(ccn3cc(-c4cccc(OC)c4)nc23)[nH]1 | 0.4 | 31.1 | 71 |
| CCOC(=O)c1cc2c(ccn3cc(CO)nc23)[nH]1 | 53.8 | > 100 | > 1.9 |
| CCOC(=O)c1cc2c(ccn3cc(C(F)(F)F)nc23)[nH]1 | 12.8 | > 100 | > 7.8 |
| CCOC(=O)c1cc2c(ccn3cc(C(C)C)nc23)[nH]1 | 23.1 | > 100 | > 4.3 |
| CCOC(=O)c1cc2c(ccn3cc(C)nc23)n1C | 5.6 | > 100 | > 17.9 |
| COC(=O)c1cc2c(ccn3cc(C)nc23)n1C | 1.7 | > 100 | > 60.6 |
| COC(=O)c1cc2c(ccn3cc(C)nc23)[nH]1 | 1.1 | > 100 | > 87.2 |
| CCCCOC(=O)c1cc2c(ccn3cc(C)nc23)[nH]1 | 2.1 | 89.8 | 41.8 |
| CCOC(=O)c1cc2c(ccn3cc(C(C)(C)C)nc23)[nH]1 | 50.3 | > 100 | > 2 |
| CCOC(=O)c1cc2c(ccn3c(Br)c(C)nc23)[nH]1 | 78.9 | > 100 | > 1.3 |
| CCOC(=O)c1cc2c(ccn3cc(CCl)nc23)[nH]1 | 47.6 | > 100 | > 2.1 |
| CCOC(=O)c1cc2c(ccn3cc(CN(C)C)nc23)[nH]1 | 46.5 | > 100 | > 2.2 |
| Cc1cn2ccc3[nH]c(CO)cc3c2n1 | 43.9 | > 100 | > 2.3 |
| Cc1cn2ccc3[nH]c(C(=O)O)cc3c2n1 | 5.1 | > 100 | > 19.6 |
| CCOC(=O)c1cc2c(ccn3cc(C=O)nc23)[nH]1 | 21.8 | > 100 | > 4.6 |
| CCOC(=O)c1cc2c(ccn3ccnc23)[nH]1 | 5 | > 100 | > 20 |
| CCOC(=O)c1cc2c(ccn3c(Br)cnc23)[nH]1 | 14.1 | > 100 | > 7.1 |
